Assay results: ChEMBL document CHEMBL1134245, “Two novel and potent 3-[(o-methoxyphenyl)piperazinylethyl]-5-phenylthien” (Bioorg Med Chem Lett, 2001)

Assays:
[1] = target: Serotonin 1 (5-HT1) receptor (Rattus norvegicus, UniProt P28564+P30940+P19327+P28565); experiment: Ancillary Binding affinity towards rat 5-hydroxytryptamine 1 receptor; format: protein assay
[2] = target: T1, Alpha-1B adrenergic receptor (Homo sapiens, UniProt P35368); experiment: Binding affinity towards human Alpha-1B adrenergic receptor
T1 sequence (P35368 whole entry): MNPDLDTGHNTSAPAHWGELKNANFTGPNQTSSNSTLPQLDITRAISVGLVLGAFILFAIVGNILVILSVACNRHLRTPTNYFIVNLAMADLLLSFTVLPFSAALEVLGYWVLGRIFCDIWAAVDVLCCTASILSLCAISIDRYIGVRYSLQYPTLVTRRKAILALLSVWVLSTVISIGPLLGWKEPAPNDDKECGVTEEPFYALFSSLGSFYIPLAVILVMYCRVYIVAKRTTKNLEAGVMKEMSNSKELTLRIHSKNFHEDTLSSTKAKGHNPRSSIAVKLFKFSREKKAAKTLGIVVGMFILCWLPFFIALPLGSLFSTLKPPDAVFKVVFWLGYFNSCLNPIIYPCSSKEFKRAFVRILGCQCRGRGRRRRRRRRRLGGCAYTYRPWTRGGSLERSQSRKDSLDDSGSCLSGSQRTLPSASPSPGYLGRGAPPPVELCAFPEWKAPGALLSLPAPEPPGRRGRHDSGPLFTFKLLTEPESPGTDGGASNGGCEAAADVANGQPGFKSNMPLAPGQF

[3] = target: T2, Alpha-1D adrenergic receptor (Homo sapiens, UniProt P25100); experiment: Binding affinity towards human Alpha-1D adrenergic receptor
T2 sequence (P25100 whole entry): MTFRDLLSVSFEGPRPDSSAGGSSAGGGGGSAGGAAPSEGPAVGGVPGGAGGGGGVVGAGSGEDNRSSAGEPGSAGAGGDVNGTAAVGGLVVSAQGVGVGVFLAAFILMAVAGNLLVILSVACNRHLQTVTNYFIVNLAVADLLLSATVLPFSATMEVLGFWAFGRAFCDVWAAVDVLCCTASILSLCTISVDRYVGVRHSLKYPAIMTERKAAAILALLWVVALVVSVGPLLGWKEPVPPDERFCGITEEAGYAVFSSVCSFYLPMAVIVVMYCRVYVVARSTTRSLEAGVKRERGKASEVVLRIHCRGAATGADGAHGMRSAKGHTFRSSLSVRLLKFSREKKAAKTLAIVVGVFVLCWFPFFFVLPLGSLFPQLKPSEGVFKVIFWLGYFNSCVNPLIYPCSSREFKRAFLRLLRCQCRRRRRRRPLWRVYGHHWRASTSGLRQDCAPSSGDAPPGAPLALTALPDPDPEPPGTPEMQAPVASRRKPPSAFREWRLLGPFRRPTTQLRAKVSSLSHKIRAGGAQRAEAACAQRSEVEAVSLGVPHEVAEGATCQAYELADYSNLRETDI

[4] = target: T3, Alpha-1A adrenergic receptor (Rattus norvegicus, UniProt P43140); experiment: Binding affinity towards rat Alpha-1A adrenergic receptor
T3 sequence (P43140 whole entry): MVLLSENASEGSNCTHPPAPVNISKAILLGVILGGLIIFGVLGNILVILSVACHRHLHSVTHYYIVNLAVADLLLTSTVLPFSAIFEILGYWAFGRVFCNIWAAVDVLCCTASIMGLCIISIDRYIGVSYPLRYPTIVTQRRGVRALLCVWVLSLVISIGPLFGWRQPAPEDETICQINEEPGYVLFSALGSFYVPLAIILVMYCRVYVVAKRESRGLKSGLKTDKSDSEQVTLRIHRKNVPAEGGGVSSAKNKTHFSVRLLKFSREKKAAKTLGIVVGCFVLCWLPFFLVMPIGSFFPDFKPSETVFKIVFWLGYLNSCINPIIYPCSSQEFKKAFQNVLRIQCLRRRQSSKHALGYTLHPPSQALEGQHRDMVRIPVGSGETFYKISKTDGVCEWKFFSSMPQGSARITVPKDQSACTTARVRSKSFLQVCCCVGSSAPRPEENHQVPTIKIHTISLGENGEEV

[5] = target: T4, Alpha-1D adrenergic receptor (Rattus norvegicus, UniProt P23944); experiment: Binding affinity towards rat Alpha-1D adrenergic receptor
T4 sequence (P23944 whole entry): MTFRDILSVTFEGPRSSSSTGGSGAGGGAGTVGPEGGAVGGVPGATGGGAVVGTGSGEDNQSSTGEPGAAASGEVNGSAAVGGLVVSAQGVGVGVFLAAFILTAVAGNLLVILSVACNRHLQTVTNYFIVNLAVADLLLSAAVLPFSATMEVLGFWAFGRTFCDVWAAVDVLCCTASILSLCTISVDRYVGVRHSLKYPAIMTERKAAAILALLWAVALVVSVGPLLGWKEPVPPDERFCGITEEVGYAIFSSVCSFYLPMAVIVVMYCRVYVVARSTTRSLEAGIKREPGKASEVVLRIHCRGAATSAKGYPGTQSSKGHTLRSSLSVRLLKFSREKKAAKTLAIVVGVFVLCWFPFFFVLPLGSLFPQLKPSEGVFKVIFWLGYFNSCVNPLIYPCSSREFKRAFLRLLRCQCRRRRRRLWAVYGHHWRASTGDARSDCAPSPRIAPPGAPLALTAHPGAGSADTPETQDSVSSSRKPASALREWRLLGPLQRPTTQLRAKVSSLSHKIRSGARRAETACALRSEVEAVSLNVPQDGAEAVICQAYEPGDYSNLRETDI

[6] = target: T3, Alpha-1A adrenergic receptor; experiment: In vitro functional activity at Alpha-1A adrenergic receptor in rat vas deferens; format: tissue-based; details: read-out: pA2 (converted)
[7] = target: D(1A) dopamine receptor (Rattus norvegicus, UniProt P18901); experiment: Ancillary Binding affinity to rat Dopamine receptor D1
[8] = target: T5, Alpha-1B adrenergic receptor (Rattus norvegicus, UniProt P15823); experiment: In vitro functional activity at Alpha-1B adrenergic receptor in rat spleen; format: tissue-based; details: read-out: pA2 (converted)
T5 sequence (P15823 whole entry): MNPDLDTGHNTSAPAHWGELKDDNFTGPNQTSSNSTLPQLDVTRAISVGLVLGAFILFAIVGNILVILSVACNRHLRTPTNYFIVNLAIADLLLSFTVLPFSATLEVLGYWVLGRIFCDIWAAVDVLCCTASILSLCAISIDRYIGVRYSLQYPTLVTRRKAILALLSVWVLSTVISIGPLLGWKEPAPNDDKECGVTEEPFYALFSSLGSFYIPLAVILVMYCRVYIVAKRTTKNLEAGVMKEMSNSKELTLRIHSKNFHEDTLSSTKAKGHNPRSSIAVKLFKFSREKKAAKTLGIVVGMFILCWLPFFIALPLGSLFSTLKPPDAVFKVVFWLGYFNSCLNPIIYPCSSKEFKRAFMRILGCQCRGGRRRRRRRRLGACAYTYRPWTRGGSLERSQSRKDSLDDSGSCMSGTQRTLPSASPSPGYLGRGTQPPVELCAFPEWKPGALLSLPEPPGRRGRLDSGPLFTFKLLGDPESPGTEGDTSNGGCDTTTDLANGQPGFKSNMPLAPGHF

[9] = target: D(2) dopamine receptor (Rattus norvegicus, UniProt P61169); experiment: Ancillary Binding affinity towards rat Dopamine receptor D2
Sequence of D(2) dopamine receptor (P61169 whole entry): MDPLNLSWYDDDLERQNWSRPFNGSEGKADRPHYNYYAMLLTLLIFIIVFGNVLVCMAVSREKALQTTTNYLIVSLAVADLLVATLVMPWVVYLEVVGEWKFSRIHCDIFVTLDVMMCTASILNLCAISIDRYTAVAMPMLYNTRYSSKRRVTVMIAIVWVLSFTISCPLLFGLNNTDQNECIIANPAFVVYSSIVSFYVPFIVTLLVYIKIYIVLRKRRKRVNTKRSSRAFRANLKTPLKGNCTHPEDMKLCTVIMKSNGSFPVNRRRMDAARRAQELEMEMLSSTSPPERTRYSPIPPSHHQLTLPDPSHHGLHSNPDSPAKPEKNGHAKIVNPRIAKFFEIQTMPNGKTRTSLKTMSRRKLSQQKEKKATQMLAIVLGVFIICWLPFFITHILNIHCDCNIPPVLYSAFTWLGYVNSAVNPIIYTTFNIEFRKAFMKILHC

Sequence of D(1A) dopamine receptor (P18901 whole entry): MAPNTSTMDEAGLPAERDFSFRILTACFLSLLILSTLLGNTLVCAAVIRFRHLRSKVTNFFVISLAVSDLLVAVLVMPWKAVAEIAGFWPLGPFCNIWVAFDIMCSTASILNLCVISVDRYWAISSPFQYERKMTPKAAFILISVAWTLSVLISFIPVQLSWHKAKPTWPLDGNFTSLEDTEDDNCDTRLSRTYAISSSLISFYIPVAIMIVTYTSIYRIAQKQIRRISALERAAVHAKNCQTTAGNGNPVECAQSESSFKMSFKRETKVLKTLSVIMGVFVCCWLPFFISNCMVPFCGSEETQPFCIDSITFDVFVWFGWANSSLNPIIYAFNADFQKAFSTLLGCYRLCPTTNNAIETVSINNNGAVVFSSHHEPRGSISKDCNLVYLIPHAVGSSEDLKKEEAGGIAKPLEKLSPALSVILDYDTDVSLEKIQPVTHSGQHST

| Structure (SMILES) | Ki [1] | Ki [2] | Ki [3] | Ki [4] | Ki [5] | Kb [6] | Ki [7] | Kb [8] | Ki [9] |
| --- | --- | --- | --- | --- | --- | --- | --- | --- | --- |
| COc1ccccc1N1CCN(CCn2c(=O)[nH]c3scc(-c4ccccc4)c3c2=O)CC1 [A-119637] | 5490 nM | 4.66 nM | 0.252 nM | 2.43 nM | 0.213 nM | 8.51 nM | 6090 nM | 2.04 nM | 50 nM |
| COc1ccccc1N1CCN(CCn2c(=O)[nH]c3scc(-c4cccc(C)c4)c3c2=O)CC1 [A-123189] | 12300 nM | 9.09 nM | 0.312 nM | 3.47 nM | 0.17 nM | 4.37 nM | 12300 nM | 1.74 nM | 17 nM |
